Data on eight compounds can be found in patent US20210072244A1, “METHODS AND COMPOSITIONS FOR TREATING MELANOMA RESISTANT” (INSERM (INSTITUT NATIONAL DE LA SANTÉ ET DE LA RECHERCHE …, priority 2018, published 2021).

Where two headings read alike, the source gives them in different places. A value given as a limit tells only on which side of the number the result lay.

The test system of series [1] is UACC62 and WM9 human melanoma cell lines (BRAFV600E). In words: Global metabolic profiling by UPLC-MS/MS. Type of series: cell-based. Conditions: FIG. 1A. As for the experimental part:
Briefly, samples were prepared using the automated MicroLab STAR® system (Hamilton Company). Recovery standards were added prior to the first step in the extraction process for QC purposes. Cell lysates were precipitated using methanol under vigorous shaking for 2 min, followed by centrifugation. The resulting extract was divided into five fractions: two samples for analysis using two separate reversephase (RP)/UPLC-MS/MS methods with positive ion mode electrospray ionization (ESI), one sample for analysis through RP/UPLC-MS/MS with negative ion mode ESI, one sample for analysis through HILIC/UPLC-MS/MS with negative ion mode ESI, and one sample was reserved for backup. The samples were briefly placed on a TurboVap® (Zymark) to remove the organic solvent. The sample extracts were stored overnight under nitrogen prior to preparation for analysis. Chromatography analyses were performed using Waters ACQUITY ultra-performance liquid chromatography (UPLC) and a Thermo Scientific Q-Exactive high resolution/accurate mass spectrometer interfaced with a heated electrospray ionization (HESI-II) source and Orbitrap mass analyzer operated at 35,000 mass resolution. The sample extract was dried and subsequently reconstituted in solvents compatible to each method (Miller et al. 2015). […]

Series [2] deals with intracellular NAD+ in melanoma cells. In words: Intracellular NAD+ measurement (NAD/NADH Quantitation Kit). The note with it: for intracellular NAD+ levels: 5 μM, 24 h (FIG. 1B). In kind it is cell-based, human. As for the experimental part: Human melanoma cell lines and short-term cultures derived from different patients with metastatic malignant melanoma cells were grown in DMEM supplemented with 7% FBS at 37° C. in a humidified atmosphere containing 5% CO2. PLX4032-sensitive and PLX4032-resistant melanoma cells were previously described (Bonet et al. 2012; Ohanna et al. 2014). Lipofectamine™ RNAiMAX and opti-MEM medium were purchased from Invitrogen (San Diego, Calif., USA). FK866 was obtained from Sigma, U0126 and GSK1120212 were purchased from Euromedex, and PD98059 and SCH77294 were obtained from Selleck Chemicals. The STAT5 inhibitor (CAS 285986-31-4) was purchased from Sigma. Intracellular NAD+ was measured using the NAD/NADH Quantitation Kit from Sigma according to the manufacturer's instructions.

In a further series the test system is human NAMPT promoter. The series is described as follows: NAMPT promoter luciferase reporter assay. Type of series: cell-based. (Reporter assays use an easily measured gene product as a stand-in for the process of interest.)
For series [3], the system named is BRAFi-resistant WM9 melanoma cell xenografts. In words: PLX4032-resistant WM9 (WM9R) xenograft growth in nude mice. Conditions: FIG. 5F. In kind it is in vivo. The protocol:
(§1) Animal experiments were performed in accordance with French law and approved by a local institutional ethical committee. The animals were maintained in a temperature controlled facility (22° C.) on a 12-h light/dark cycle and provided free access to food (standard laboratory chow diet from UAR, Epinay-S/Orge, France). Human WM9 melanoma cells, responsive or resistant to PLX4032 (2×10^6 cells), were subcutaneously inoculated into 8-week-old female, immune-deficient, athymic, nude FOXN1nu mice (Harlan Laboratory). When the tumors became palpable (0.1-0.2 cm3), the mice received an intraperitoneal injection of PLX4032 (25 mg/kg), FK866 (15 mg/kg) or both drugs dissolved in a mixture of Labrafil M1944 Cs, dimethylacetamide, and Tween 80 (90:9:1, v/v/v) three times per week. Control mice were injected with Labrafil alone. The growth tumor curves were determined after measuring the tumor volume using the equation V=(L×W2)/2. At the end of the experiment, the mice were euthanized by cervical dislocation, and the tumors were harvested for immunofluorescence.

For the next series, the system named is ERK. In words: ERK phosphorylation (Western blot). In kind it is cell-based, human. The note with it: for ERK phosphorylation: A375 and WM9 cells; for ERK phosphorylation levels: A375 melanoma cells, data not shown. The protocol: (§2) Western blotting was performed as previously described (Hilmi et al. 2008; Bertolotto et al. 2011). Briefly, cell lysates (30 μg) were separated using SDS-PAGE, transferred onto a PVDF membrane and subsequently exposed to the appropriate antibodies, anti-ERK2 (Santa Cruz Biotechnology, sc-1647 clone D-2), anti-phospho-ERK1/2 (Thr202/Tyr204) (Cell Signaling Technology Inc., #2370), anti-BRAF (Santa Cruz Biotechnology, sc-5284 clone F-7), anti-NAMPT (Sigma, #B5812), antiphospho-STAT5 (Tyr694) (Ozyme #9351), anti-STAT5 (Ozyme #9363), and anti-HSP90 (Santa Cruz biotechnology, #sc-13119). The proteins were visualized using the ECL system (Amersham). The western blots shown are representative of at least 3 independent experiments.
In general terms: Immunoblotting shows a protein as a band on a membrane.

For the next series, the system named is STAT5. The series is described as follows: STAT5 phosphorylation (Western blot). Type of series: cell-based, human. The note with it: A375 and WM9 cells. The protocol: as §2
Series [4] deals with NAMPT. In words: NAMPT expression in melanoma cells (Western blot, QPCR). In kind it is cell-based, human. As for the experimental part:
The proteins were visualized using the ECL system (Amersham).
The mRNA was isolated using TRIzol (Invitrogen) according to a standard procedure. QRT-PCR was performed using SYBR® Green I (Eurogentec, Seraing, Belgium) and Multiscribe Reverse Transcriptase (Applied Biosystems) and subsequently monitored using the ABI Prism 7900 Sequence Detection System (Applied Biosystems, Foster City, Calif.). The detection of the SB34 gene was used to normalize the results. Primer sequences for each cDNA were designed using either Primer Express Software (Applied Biosystems) or qPrimer depot (http://primerdepot.nci.nih.gov), and these sequences are available upon request.

In series [5] the test system is BRAFWT human melanoma cells. The series is described as follows: Cell proliferation (cell counting), BRAFWT cells. The note with it: data not shown. In kind it is cell-based. As for the experimental part: (§3) The cells were seeded onto 12-well dishes (10×10^3 cells), and at 48 h post transfection or treatment, the cells were trypsinized from days 1 to 4, counted in triplicate using a hemocytometer. The experiments were performed at least three times.

For series [6], the system named is BRAFV600E human melanoma cells. In words: Cell proliferation / viability (cell counting), BRAFV600E cells. Type of series: cell-based. The protocol:
as §3

Series [7] has as its system WM9 melanoma cell xenograft. The series is described as follows: WM9 melanoma xenograft growth in nude mice. In kind it is in vivo. Conditions: 15 mg/kg every two days, athymic nude mice, versus vehicle, FIG. 4C. As for the experimental part:
as §1

Series [8] concerns A375R melanoma cell xenografts. The series is described as follows: PLX4032-resistant A375 (A375R) xenograft growth in mice. In kind it is in vivo.
A short description of series [9]: Body weight of treated mice. Type of series: in vivo. Conditions: FK866 15 mg/kg, not shown. As for the experimental part:
as §1

The test system of series [10] is BRAFi-resistant A375 (A375R) and WM9 (WM9R) melanoma cells. The series is described as follows: Proliferation and PLX4032 sensitivity of BRAFi-resistant melanoma cells. In kind it is cell-based, human. The protocol:
as §3

Series [11] deals with NAMPT. Conditions: public microarray data GSE51115, melanoma cell lines; cited from earlier work.
Where [12] appears, read: A375 melanoma cells, data not shown.

On to `CCCS(=O)(=O)Nc1ccc(F)c(C(=O)c2c[nH]c3ncc(-c4ccc(Cl)cc4)cc23)c1F` [PLX4032], for which the “nicotinamide adenine dinucleotide (NAD+) levels” value in series [1] was “reduced”. The “intracellular NAD+ levels” value is reported as “not in BRAFWT human melanoma cells” in [2] (BRAFWT human melanoma cells); “reduced intracellular NAD+ levels” in [2] (all BRAFV600E-mutated melanoma cell lines and short-term cultures). Moreover, the NAMPT promoter activity entry with human NAMPT promoter (A375 and WM9 cells, FIGS. 3A-B) is recorded as “dose-dependent decrease”. For the same compound, in the series on human NAMPT promoter (A375 cells, 48 h, p<0.0034), the “NAMPT promoter activity, significance over doses” value is listed as “all the PLX4032 doses lead to significant decrease”. The “PLX4032 dose giving significant decrease in NAMPT promoter activity” value in the series with human NAMPT promoter (WM9 cells, 48 h, p<0.014, in µM) was > 0.005. For the same compound, the “tumor growth of BRAFi-resistant WM9 xenografts” value in [3] is reported as “not affected”. Besides, the ERK phosphorylation result in the series with ERK was “inhibited”. In addition, the STAT5 phosphorylation entry with STAT5 is on record as “inhibited”. The “NAMPT expression, protein level” value with NAMPT [4] (4 different BRAFV600E melanoma cells, data not shown) is recorded as “reduced NAMPT expression”. In the series with NAMPT [4] (BRAFV600E melanoma cells, QPCR, FIG. 2A), the “NAMPT expression, mRNA level” value was “reduced NAMPT expression”. Further, in the series on NAMPT [4] (BRAFWT human melanoma cells, data not shown), the NAMPT expression result was “No inhibition”. Moreover, the cell proliferation result is given as “not in BRAFWT human melanoma cells” in [5] and “inhibited cell proliferation” in [6] (BRAFV600E human melanoma cells, data not shown). For the same compound, in [6] (A375 and WM9 melanoma cells, 5 μM, 72 h (FIG. 5B)), the viability result was “inhibited the viability”.
For the compound `O=C(Nc1ccc2[nH]nc(-c3ccncc3)c2c1)[C@@H]1CCN(CC(=O)N2CCN(c3ccc(-c4ncccn4)cc3)CC2)C1` [SCH77294], in the series with ERK, the ERK phosphorylation levels result was “inhibition of ERK phosphorylation levels”. For the same compound, the NAMPT expression result in the series with NAMPT [4] (setting [12]) is “inhibition of NAMPT expression”.
In the case of `CC(=O)Nc1cccc(-n2c(=O)n(C3CC3)c(=O)c3c(Nc4ccc(I)cc4F)n(C)c(=O)c(C)c32)c1` [GSK1120212], the ERK phosphorylation levels entry in the series with ERK is “inhibition of ERK phosphorylation levels”. In the series with NAMPT [4] (setting [12]), the NAMPT expression result is on record as “inhibition of NAMPT expression”.
The matching figures for `COc1cccc(-c2cc(=O)c3ccccc3o2)c1N` [PD98059]: “inhibition of ERK phosphorylation levels” and “inhibition of NAMPT expression”.
The matching figures for `N#CC(=C(/N)Sc1ccccc1N)/C(C#N)=C(\N)Sc1ccccc1N` [U0126]: “inhibition of ERK phosphorylation levels” and “inhibition of NAMPT expression”.
As for `O=C(/C=C/c1cccnc1)NCCCCC1CCN(C(=O)c2ccccc2)CC1` [FK866], the “intracellular levels of NAD+” value in [2] (A375 and WM9 melanoma cell lines, FIG. 4A) is “dramatically decreased”. In addition, the “WM9 melanoma cell xenograft growth” value in [7] was “impaired”. Also, the “tumor growth of BRAFi-resistant WM9 xenografts” value in [3] was “inhibited tumor growth”. Besides, in series [8] (FK866 1.5 mg/kg and 15 mg/kg, FIG. 5E), the “melanoma progression (A375R xenograft)” value is given as “dose-dependently reduced”. Besides, the “NAD+ in treated tumors” value in [8] (FK866-treated tumors, data not shown) is reported as “reduction”. In [9], the “weight loss in the treated mice” value was “no weight loss”. In addition, in series [10] (A375R and WM9R, PLX4032 5 μM), the “PLX4032 sensitivity in BRAFi-resistant cells” value is given as “restored PLX4032 sensitivity”. In [10] (BRAFi-resistant melanoma cells, both in vitro and in vivo), the melanoma cell death result is given as “caused melanoma cell death”. The NAMPT expression entry in the series on NAMPT [4] (A375 and WM9 cells, NAMPT siRNA or FK866) is on record as “did not affect”. The cell proliferation entry in series [6] (A375 and WM9 melanoma cells, counted each day, FIG. 4B) is given as “impaired cell proliferation”.
With `O=C(N/N=C/c1coc2ccccc2c1=O)c1cccnc1` [STAT5 inhibitor], in series [2] (A375 and WM9 cells exposed to STAT5 inhibitor, FIG. 3F), the “NAD+ levels” value is “decreased”. Also, in the series on human NAMPT promoter (501MEL cells transfected with BRAFV600E vector, 100 μM, 48 h (FIG. 3E)), the “BRAFV600E-stimulated NAMPT promoter activity” value is reported as “decreased”. The “basal NAMPT promoter activity” value in the series on human NAMPT promoter (501MEL cells, control vector, 100 μM, 48 h (FIG. 3E)) was “decreased”. Further, in the series on ERK, the ERK phosphorylation entry is on record as “did not affect”. Further, in the series on STAT5, the STAT5 phosphorylation result is listed as “efficiently reduced”. Besides, in the series on NAMPT [4] (BRAF and STAT5 inhibitors, data not shown), the NAMPT expression entry is on record as “decreased”.
Take `O=C(NOC[C@H](O)CO)c1ccc(F)c(F)c1Nc1ccc(I)cc1F` [PD0325901]: in the series with NAMPT [11], the NAMPT expression entry is “inhibition of NAMPT expression”.
